For this assay, the target named is T1, BRM (Homo sapiens, UniProt P51531).
T1 construct: Western Blot Screen of BRM Degradation in SW1573 Cells; endogenous in cells; host or cells: SW1573 cells
Description: BRM degradation (Dmax and DC50) in SW1573 cells, Western blot screen / In-Cell Western screen. In kind it is cell-based. To be noted: overnight (18-20 hours) treatment; for Dmax: read-out: Dmax (%)** (% degraded). A digest of the protocol:
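Dmax and DC50 were derived from BRM levels normalised to an alpha-tubulin control, measured by chemiluminescent Western blotting of lysates or by PFA-fixed In-Cell Western on LI-COR Odyssey. SW1573 cells received compound overnight (18–20 h, 0.1% DMSO final).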
In general terms: A western blot detects proteins with antibodies after separation by electrophoresis.

T1 sequence (P51531 whole entry): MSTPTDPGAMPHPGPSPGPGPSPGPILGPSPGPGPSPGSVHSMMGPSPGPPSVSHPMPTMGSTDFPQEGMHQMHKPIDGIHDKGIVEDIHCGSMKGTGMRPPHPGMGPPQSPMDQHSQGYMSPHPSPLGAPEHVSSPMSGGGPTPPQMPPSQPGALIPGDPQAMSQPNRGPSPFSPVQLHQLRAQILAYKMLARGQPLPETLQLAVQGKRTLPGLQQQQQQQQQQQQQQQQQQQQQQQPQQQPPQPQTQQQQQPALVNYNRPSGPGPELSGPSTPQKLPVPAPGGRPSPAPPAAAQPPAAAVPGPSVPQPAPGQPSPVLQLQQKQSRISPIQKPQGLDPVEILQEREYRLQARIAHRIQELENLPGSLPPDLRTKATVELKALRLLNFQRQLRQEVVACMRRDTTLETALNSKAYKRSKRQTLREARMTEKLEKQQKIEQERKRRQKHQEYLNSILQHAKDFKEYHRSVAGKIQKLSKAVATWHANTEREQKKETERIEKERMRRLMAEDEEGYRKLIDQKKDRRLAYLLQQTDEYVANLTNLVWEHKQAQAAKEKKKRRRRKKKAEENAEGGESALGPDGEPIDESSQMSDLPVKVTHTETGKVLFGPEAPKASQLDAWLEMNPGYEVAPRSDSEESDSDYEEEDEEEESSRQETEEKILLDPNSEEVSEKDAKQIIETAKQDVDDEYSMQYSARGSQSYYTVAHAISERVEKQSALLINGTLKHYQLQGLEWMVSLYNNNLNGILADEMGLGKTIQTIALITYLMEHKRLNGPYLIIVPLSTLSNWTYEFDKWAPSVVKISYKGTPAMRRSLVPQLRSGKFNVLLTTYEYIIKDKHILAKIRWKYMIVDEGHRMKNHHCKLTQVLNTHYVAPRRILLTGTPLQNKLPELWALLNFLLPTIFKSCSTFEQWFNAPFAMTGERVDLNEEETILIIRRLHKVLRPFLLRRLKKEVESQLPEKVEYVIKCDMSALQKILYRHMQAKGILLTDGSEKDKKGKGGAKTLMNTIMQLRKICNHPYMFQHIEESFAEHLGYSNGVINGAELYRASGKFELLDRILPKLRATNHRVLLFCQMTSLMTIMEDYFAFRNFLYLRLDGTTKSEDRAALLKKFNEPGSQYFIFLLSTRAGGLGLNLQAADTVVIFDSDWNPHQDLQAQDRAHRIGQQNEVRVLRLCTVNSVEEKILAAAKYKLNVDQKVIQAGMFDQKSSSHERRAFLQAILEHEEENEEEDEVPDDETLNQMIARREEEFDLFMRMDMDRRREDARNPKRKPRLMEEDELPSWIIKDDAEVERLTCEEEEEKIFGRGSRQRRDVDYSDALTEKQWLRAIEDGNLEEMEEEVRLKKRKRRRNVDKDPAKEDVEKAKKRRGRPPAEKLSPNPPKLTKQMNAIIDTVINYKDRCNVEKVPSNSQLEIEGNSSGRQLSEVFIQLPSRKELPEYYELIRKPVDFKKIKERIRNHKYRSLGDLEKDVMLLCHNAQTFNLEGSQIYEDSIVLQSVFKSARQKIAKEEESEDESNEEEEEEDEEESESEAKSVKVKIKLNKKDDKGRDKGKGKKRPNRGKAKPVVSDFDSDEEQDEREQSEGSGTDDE

Usually DC50 stands for the midpoint of the concentration-degradation curve. Lower therefore signals a more potent degrader. A word on the Dmax: it is the greatest extent of degradation seen. `CC(C)[C@@H](C(=O)N1C[C@H](O)C[C@H]1C(=O)N[C@@H](C)c1ccc(-c2ccnn2C)cc1)c1cc(N2CCC(CN3CCC(Oc4cc(N5CCN(c6cc(-c7ccccc7O)nnc6N)CC5)ccn4)CC3)CC2)no1` [Compound 41, (2S,4R)-1-[(2R)-2-{3-[4-({4-[(4-{4-[3-amino-6-(2-hydroxyphenyl)pyridazin-4-yl]piperazin-1-yl}pyridin-2-yl)oxy]piperidin-1-yl}methyl)piperidin-1-yl]-1,2-oxazol-5-yl}-3-methylbutanoyl]-4-hydroxy-N-[(1S)-1-[4-(1-methyl-1H-pyrazol-5-yl)phenyl]ethyl]pyrrolidine-2-carboxamide]: the 50% degradation concentration (DC50) is below 2.5 nM and the Dmax was above 75%. Turning to `CC(C)[C@@H](C(=O)N1C[C@H](O)C[C@H]1C(=O)N[C@@H](C)c1ccc(-c2ccnn2C)cc1)c1cc(N2CCC(CN3CCC(O[C@H]4C[C@H](N5CCC(C(C)n6cc(C#Cc7cc(-c8ccccc8O)nnc7N)cn6)CC5)C4)CC3)CC2)no1` (stereo partly drawn) [Compound 42, (2S,4R)-4-hydroxy-N-[(1S)-1-[4-(1-methyl-1H-pyrazol-5-yl)phenyl]ethyl]-1-[(2R)-3-methyl-2-{3-[4-({4-[(1r,3r)-3-{4-[1-(4-{2-[3-amino-6-(2-hydroxyphenyl)pyridazin-4-yl]ethynyl}-1H-pyrazol-1-yl)ethyl]piperidin-1-yl}cyclobutoxy]piperidin-1-yl}methyl)piperidin-1-yl]-1,2-oxazol-5-yl}butanoyl]pyrrolidine-2-carboxamide], the DC50 is below 2.5 nM and the Dmax was above 75%.

For `Cc1ncsc1-c1ccc([C@H](C)NC(=O)[C@@H]2C[C@@H](O)CN2C(=O)[C@@H](c2cc(N3CCC(CN4CCC(N5CCC6(CC5)CC(Oc5cc(N7C8CCC7CN(c7cc(-c9ccccc9O)nnc7N)C8)ccn5)C6)CC4)CC3)no2)C(C)C)cc1` [Compound 43, (2S,4R)-1-[(2R)-2-(3-{4-[(4-{2-[(4-{3-[3-amino-6-(2-hydroxyphenyl)pyridazin-4-yl]-3,8-diazabicyclo[3.2.1]octan-8-yl}pyridin-2-yl)oxy]-7-azaspiro[3.5]nonan-7-yl}piperidin-1-yl)methyl]piperidin-1-yl}-1,2-oxazol-5-yl)-3-methylbutanoyl]-4-hydroxy-N-[(1S)-1-[4-(4-methyl-1,3-thiazol-5-yl)phenyl]ethyl]pyrrolidine-2-carboxamide], the DC50 is below 2.5 nM and the Dmax was above 75%. Regarding `Cc1ncsc1-c1ccc([C@H](C)NC(=O)[C@@H]2C[C@@H](O)CN2C(=O)[C@@H](c2cc(N3CCC(CN4CCC(O[C@H]5C[C@H](N6CCC7(CC6)CC(N6C8CCC6CN(c6cc(-c9ccccc9O)nnc6N)C8)C7)C5)CC4)CC3)no2)C(C)C)cc1` [Compound 44, (2S,4R)-4-hydroxy-N-[(1S)-1-[4-(4-methyl-1,3-thiazol-5-yl)phenyl]ethyl]-1-[(2R)-3-methyl-2-{3-[4-({4-[(1r,3r)-3-(2-{3-[3-amino-6-(2-hydroxyphenyl)pyridazin-4-yl]-3,8-diazabicyclo[3.2.1]octan-8-yl}-7-azaspiro[3.5]nonan-7-yl)cyclobutoxy]piperidin-1-yl}methyl)piperidin-1-yl]-1,2-oxazol-5-yl}butanoyl]pyrrolidine-2-carboxamide], the DC50 is below 2.5 nM and the Dmax is above 75%. The like results for `Cc1ncsc1-c1ccc([C@H](C)NC(=O)[C@H]2C[C@@H](O)CN2C(=O)[C@@H](c2cc(N3CCC(CN4CCC(O[C@H]5C[C@H](OC(=O)N6CCN(c7cc(-c8ccccc8O)nnc7N)CC6)C5)CC4)CC3)no2)C(C)C)cc1` [Compound 45, (1rs,3rs)-3-({1-[(1-{5-[(2R)-1-[(2S,4R)-4-hydroxy-2-{[(1S)-1-[4-(4-methyl-1,3-thiazol-5-yl)phenyl]ethyl]carbamoyl}pyrrolidin-1-yl]-3-methyl-1-oxobutan-2-yl]-1,2-oxazol-3-yl}piperidin-4-yl)methyl]piperidin-4-yl}oxy)cyclobutyl 4-[3-amino-6-(2-hydroxyphenyl)pyridazin-4-yl]piperazine-1-carboxylate] were, in that order, below 2.5 nM and above 75%. Turning to `CC(C)[C@H](C(=O)N1C[C@H](O)C[C@H]1C(=O)N[C@@H](C)c1ccc(Cl)cc1)c1cc(N2CCC(CN3CCC(O[C@H]4C[C@H](Oc5cc(N6C7CCC6CN(c6cc(-c8ccccc8O)nnc6N)C7)ccn5)C4)CC3)CC2)no1` [Compound 46, (2S,4R)-N-[(1S)-1-(4-chlorophenyl)ethyl]-4-hydroxy-1-[(2S)-3-methyl-2-{3-[4-({4-[(1r,3r)-3-[(4-{3-[3-amino-6-(2-hydroxyphenyl)pyridazin-4-yl]-3,8-diazabicyclo[3.2.1]octan-8-yl}pyridin-2-yl)oxy]cyclobutoxy]piperidin-1-yl}methyl)piperidin-1-yl]-1,2-oxazol-5-yl}butanoyl]pyrrolidine-2-carboxamide], the 50% degradation concentration (DC50) is at least 30 nM. Take `Cc1ncsc1-c1ccc([C@H](C)NC(=O)[C@@H]2C[C@@H](O)CN2C(=O)[C@@H](c2cc(N3CCC(CN4CCC(O[C@H]5C[C@H](N6CCN(CC7C8CCC7CN(c7cc(-c9ccccc9O)nnc7N)C8)CC6)C5)CC4)CC3)no2)C(C)C)cc1` (stereo partly drawn) [Compound 47, (2S,4R)-4-hydroxy-N-[(1S)-1-[4-(4-methyl-1,3-thiazol-5-yl)phenyl]ethyl]-1-[(2R)-3-methyl-2-{3-[4-({4-[(1r,3r)-3-[4-({3-[3-amino-6-(2-hydroxyphenyl)pyridazin-4-yl]-3-azabicyclo[3.2.1]octan-8-yl}methyl)piperazin-1-yl]cyclobutoxy]piperidin-1-yl}methyl)piperidin-1-yl]-1,2-oxazol-5-yl}butanoyl]pyrrolidine-2-carboxamide]: the DC50 is 2.5 to 10 nM and the maximal degradation (Dmax) was above 75%. The like results for `CC(C)[C@@H](C(=O)N1C[C@H](O)C[C@H]1C(=O)N[C@@H](C)c1ccc(-c2ccnn2C)cc1)c1cc(N2CCC(CN3CCC(O[C@H]4C[C@H](Oc5cc(/C=C(\F)c6cc(-c7ccccc7O)nnc6N)ccn5)C4)CC3)CC2)no1` [Compound 51, (2S,4R)-4-hydroxy-N-[(1S)-1-[4-(1-methyl-1H-pyrazol-5-yl)phenyl]ethyl]-1-[(2R)-3-methyl-2-{3-[4-({4-[(1r,3r)-3-[(4-{2-[3-amino-6-(2-hydroxyphenyl)pyridazin-4-yl]-2-fluoroethenyl}pyridin-2-yl)oxy]cyclobutoxy]piperidin-1-yl}methyl)piperidin-1-yl]-1,2-oxazol-5-yl}butanoyl]pyrrolidine-2-carboxamide] were, in that order, below 2.5 nM and above 75%.

Regarding `CC(C)[C@@H](C(=O)N1C[C@H](O)C[C@H]1C(=O)N[C@@H](C)c1ccc(-c2ccnn2C)cc1)c1cc(N2CCC(CN3CCC(Oc4cc(/C=C(\F)c5cc(-c6ccccc6O)nnc5N)ccn4)CC3)CC2)no1` [Compound 52, (2S,4R)-1-[(2R)-2-{3-[4-({4-[(4-{2-[3-amino-6-(2-hydroxyphenyl)pyridazin-4-yl]-2-fluoroethenyl}pyridin-2-yl)oxy]piperidin-1-yl}methyl)piperidin-1-yl]-1,2-oxazol-5-yl}-3-methylbutanoyl]-4-hydroxy-N-[(1S)-1-[4-(1-methyl-1H-pyrazol-5-yl)phenyl]ethyl]pyrrolidine-2-carboxamide], the DC50 is below 2.5 nM and the Dmax is above 75%.

For the compound `Cc1ncsc1-c1ccc([C@H](C)NC(=O)[C@@H]2C[C@@H](O)CN2C(=O)[C@@H](c2cc(N3CCC(CN4CCC(O[C@H]5C[C@H](N6CC(F)(F)OC7(CCN(c8cc(-c9ccccc9O)nnc8N)CC7)C6)C5)CC4)CC3)no2)C(C)C)cc1` [Compound 55, (2S,4R)-4-hydroxy-N-[(1S)-1-[4-(4-methyl-1,3-thiazol-5-yl)phenyl]ethyl]-1-[(2R)-3-methyl-2-{3-[4-({4-[(1r,3r)-3-{9-[3-amino-6-(2-hydroxyphenyl)pyridazin-4-yl]-2,2-difluoro-1-oxa-4,9-diazaspiro[5.5]undecan-4-yl}cyclobutoxy]piperidin-1-yl}methyl)piperidin-1-yl]-1,2-oxazol-5-yl}butanoyl]pyrrolidine-2-carboxamide], the DC50 is below 2.5 nM and the Dmax was above 75%. For `Cc1ncsc1-c1ccc([C@H](C)NC(=O)[C@@H]2C[C@@H](O)CN2C(=O)[C@@H](c2cc(N3CCC(OC4CCN(C[C@H]5C[C@H](N6CCOC7(CCN(c8cc(-c9ccccc9O)nnc8N)CC7)C6)C5)CC4)CC3)no2)C(C)C)cc1` [Compound 56, (2S,4R)-4-hydroxy-N-[(1S)-1-[4-(4-methyl-1,3-thiazol-5-yl)phenyl]ethyl]-1-[(2R)-3-methyl-2-(3-{4-[(1-{[(1r,3r)-3-{9-[3-amino-6-(2-hydroxyphenyl)pyridazin-4-yl]-1-oxa-4,9-diazaspiro[5.5]undecan-4-yl}cyclobutyl]methyl}piperidin-4-yl)oxy]piperidin-1-yl}-1,2-oxazol-5-yl)butanoyl]pyrrolidine-2-carboxamide], the DC50 is below 2.5 nM and the maximal degradation (Dmax) was above 75%.

For the compound `Cc1ncsc1-c1ccc([C@H](C)NC(=O)[C@@H]2C[C@@H](O)CN2C(=O)[C@@H](c2cc(N3CCC(CN4CCC(O[C@H]5C[C@H](N6CCN(CC7(O)CCN(c8cc(-c9ccccc9O)nnc8N)CC7)CC6)C5)CC4)CC3)no2)C(C)C)cc1` [Compound 57, (2S,4R)-4-hydroxy-N-[(1S)-1-[4-(4-methyl-1,3-thiazol-5-yl)phenyl]ethyl]-1-[(2R)-3-methyl-2-{3-[4-({4-[(1r,3r)-3-[4-({1-[3-amino-6-(2-hydroxyphenyl)pyridazin-4-yl]-4-hydroxypiperidin-4-yl}methyl)piperazin-1-yl]cyclobutoxy]piperidin-1-yl}methyl)piperidin-1-yl]-1,2-oxazol-5-yl}butanoyl]pyrrolidine-2-carboxamide], the DC50 was below 2.5 nM and the Dmax is above 75%.
